According to patent publication US5053006A, “Method for the permanent occlusion of arteries” (priority 1990, dated 1991):
Several values for one entry are separate records, joined by “and”; a condition that tells them apart may be missing. Equal entries are not always repeated.

What was measured:
corneal cholesterol = assay: Corneal cholesterol content after photothrombosis (Example 6); type: in vivo, New Zealand white rabbit; settings: for Corneal Cholesterol Concentration, Difference Between Treated and Untreated Eyes / Corneal Cholesterol Concentration, Difference Between Treated and Untreated Eyes, %: individual rabbit
From the text: (§1) Nine New Zealand white strain rabbits weighting 1 to 2 kg were rendered hypercholesterolemic by foods that contained high levels of cholesterol, as described in Stock et. al., Arch. Ophthalmol., 103:726-730, 1985; and Mendelsohn et al., Ophthalmic Surg., 17:502-508, 1986. Eight days after commencement of the high-cholesterol diet, corneal sutures were implanted in both eyes according to the surgical procedure described in Mendelsohn et al., Ophthalmic Surg., 17:502-508, 1986.
(§2) On day 22, slit-lamp photographs and fluorescein angiograms were obtained of all corneas (Mendelsohn et al., Arch. Ophthalmol., 105:983-988, 1987, the disclosure of which is hereby incorporated by reference and relied upon). On the next day, one eye of each rabbit underwent laser surgery, with the other eye serving as a comparative control. Rose bengal dye was dissolved at a concentration of 30 mg/ml in 0.9% saline solution. For the initial injection, the dye solution was administered at a total body concentration of 45 mg/kg. For the two animals in which the procedure took longer than 25 minutes, a booster injection of 15 mg/kg was administered. Irradiations of corneal vessels were carried out with an argon ion laser (Model 95, Cooper Laser-Sonica, Sunnyvale, Calif.) operated in the TEM00 mode at 514.5 nm. The beam was directed toward an aluminized mechanical shutter (AW Vincent Associates, Rochester, NY), which reflected it at a right angle through a 514.5-nm custom interference filter with a transmittance of 92% (Omega Optical, Brattleboro, VT) and then through a fused silica lens with a focal length of 7.5 cm for focusing into a 2.5-m fiberoptic cable 400 μm in diameter. In the optical fiber, the gaussian input beam profile was converted into an output beam. The output was collimated by a plano convex lens 3.5 cm in focal length and focused with a plano convex lens with a focal length of 1.0 cm. The lenses were mounted in a beam telescope attached to an X-Y positioning device (Daedal Inc., Harrison City, Pa.). The beam diameter was measured with a calibrated reticle in the ocular of a ×20 operating microscope. By observing, through a 514.5-nm rejection filter, the fluorescence of a white card impregnated with rhodamine B, the minimum diameter of the organe fluorescent spot at the focal point was determined to be 63 μm. Combining the transmission efficiencies of the three uncoated lenses (92% per lens, 76% total transmission) with those of the optical fiber and interference filter yielded a system transmission efficiency of 61.5%. This reduced the incident power level of the laser from 215 mW to an effective power level of 132 mW; this corresponded to an incident intensity at the focal point of 4.23 kW/cm^2 . During shutter closure, irradiations were carried out in 0.2-s intervals. When the shutter was opened, the low-power beam, which was reflected off an optical flat and through the optical system, was used for aligning the next vessel selected for irradiation.
One eye of each rabbit was subjected to laser applications that were directed toward the vascular branching points of the limbal and corneal feeder vessels adjacent to the sites of lipid deposits. […] Initially, the irradiated segment appeared yellow-orange because the fluorescence of rose bengal had been absorbed into erythrocyte plasma membranes and plasma proteins. As platelets accumulated, the fluorescence became yellowish and less intense. […]

corneal neovasculature = type: in vivo, New Zealand white rabbit
From the text: as §1, §2
One eye of each rabbit was subjected to laser applications that were directed toward the vascular branching points of the limbal and corneal feeder vessels adjacent to the sites of lipid deposits. The irradiated blood vessel segment was observed through the ×20 operating microcope fitted with the 514.5-nm rejection band interference filter. Initially, the irradiated segment appeared yellow-orange because the fluorescence of rose bengal had been absorbed into erythrocyte plasma membranes and plasma proteins. As platelets accumulated, the fluorescence became yellowish and less intense. The color gradually disappeared due to the exclusion of red blood cells, indicating occlusion of the vessel. A striking event that preceded the thrombus was intense vasoconstriction at the site of irradiation. Constriction of the vessel could be observed following the initial one to three laser shots in each segment. […]

[1] = rabbit, in vivo; cited from earlier work
[2] = Absorption / excitation of the dye in tissue; type: physicochemical
From the text: Examples of lasers that can be used to provide the light beam include the He-Ne laser, the argon ion laser and the argon-pumped dye laser. The 543.5 nm He-Ne laser, for example, can excite rose bengal with an efficiency of 58% of the maximum. (The wavelength at which excitation efficiency for rose bengal is maximal in tissue occurs at 562 nm.) Because the maximum theoretical power output is only 4 or 5 milliwatts, the 543.5 nm He-Ne laser is not used in clinical applications at this time. However, this laser is expected to be particularly useful in permanently occluding relatively low-flow arteries, smaller than about 200 μm, such as those in the choroid of the eye.
The argon ion laser is the most common clinical laser used at this time. Although the commonly used argon 514.5 nm line is only 36% efficient with respect to the maximum of rose bengal absorption, this laser is much more powerful (by at least a factor of 1000) and versatile than the He-Ne laser.
The absorption maximum of erythrosin B in endothelial tissue is at 536 nm, which is closer than that of rose bengal to the standard 514.5 nm wavelength of the argon ion laser.

For `O=C([O-])c1c(Cl)c(Cl)c(Cl)c(Cl)c1-c1c2cc(I)c(=O)c(I)c-2oc2c(I)c([O-])c(I)cc12.[Na+].[Na+]` [rose bengal], the “Corneal Cholesterol Concentration, Difference Between Treated and Untreated Eyes” value (corneal cholesterol; 45 mg/kg) was 0.144 g of Cholesterol/100 g of Corn and 0.007 g of Cholesterol/100 g of Corn and 0.076 g of Cholesterol/100 g of Corn and 0.149 g of Cholesterol/100 g of Corn and 0.105 g of Cholesterol/100 g of Corn and 0.129 g of Cholesterol/100 g of Corn and 0.058 g of Cholesterol/100 g of Corn, the “Corneal Cholesterol Concentration, Difference Between Treated and Untreated Eyes, %” value (corneal cholesterol; 45 mg/kg) was -36.5% and -2.5% and -24.3% and -41.7% and -29.1% and -42.0% and -21.9% and the “Corneal Cholesterol Concentration, Difference Between Treated and Untreated Eyes” value (corneal cholesterol; 60 mg/kg (45 plus booster 15)) was 0.219 g of Cholesterol/100 g of Corn and 0.206 g of Cholesterol/100 g of Corn. For the same molecule, the “Corneal Cholesterol Concentration, Difference Between Treated and Untreated Eyes, %” value (corneal cholesterol; 60 mg/kg (45 plus booster 15)) was -58.6% and -51.8%, the “average reduction of corneal cholesterol content” value (corneal cholesterol; laser-treated vs control eyes) was 36% and the “No. of Laser Shots” value (corneal neovasculature; 60 mg/kg (45 mg/kg plus booster 15 mg/kg 25 minutes later), individual rabbit) was 86 and 106. For the same molecule, the “treated corneal vessels occluded” value (corneal neovasculature; 21 days after laser) was “about 95%”, the fluorescein perfusion (corneal neovasculature; 21 days after laser, nine treated eyes) was “complete lack of perfusion” and the “laser shots required, average” value (corneal neovasculature; average) was 85 laser shots per quadrant. For the same molecule, the “laser shots to vessel constriction” value (corneal neovasculature; each segment) was “one to three”, the “acute and chronic inflammatory cells” value (corneal neovasculature; rabbit, in vivo) was “mild to moderate numbers” and the “corneal edema or polymorphonuclear leukocyte infiltration” value (corneal neovasculature; rabbit, in vivo) was “does not produce corneal edema or polymorphonuclear leukocyte infiltration”. For the same molecule, the “inflammation along limbal vessels” value (corneal neovasculature; rabbit, in vivo) was “No signs of inflammation”, the “new vessels formed in response to treatment” value (corneal neovasculature; rabbit, in vivo) was “nor were any new vessels formed” and the “laser shots required to occlude the corneal neovasculature” value (corneal neovasculature; range) was 58 to 106 laser shots per quadrant. The “times less incident intensity than photocoagulation” value (corneal neovasculature; vs photocoagulation) was 8.5 times, the “times less total light exposure than photocoagulation” value (corneal neovasculature; vs photocoagulation) was 27.5 times and the half-life in blood [1] was “three”. The “excitation efficiency relative to maximum of absorption” value ([2]; 514.5 nm argon line) was 36%, the “excitation efficiency relative to maximum” value ([2]; 543.5 nm He-Ne laser) was 58% and the “gain in efficiency of endothelial photosensitization, factor” value ([2]; argon-pumped dye laser (562 nm) over 514.5 nm argon line) was ≥ 3. The “wavelength of maximal excitation efficiency / absorption maximum in tissue” value ([2]; in tissue) was 562 nm.
